# Test results from patent publication US7235536B2, “Cellulose sulfate and other sulfated polysaccharides to prevent and treat papilloma virus infection and other infections” (Rush Presbyterian-St. Luke's Medical Center, priority 2000, dated 2007).
# Key:
# BPV-1 [1] = assay: BPV-1 focus-forming assay, cells pre-incubated with compound and washed before virus (Table D); type: cell-based, bovine papilloma virus; conditions: for Average ± standard deviation (foci/well): C127-D10 cells, washed before virus
# Protocol: Microbicidal activity of compounds was also tested by pre-incubation of cells with compounds followed by addition of virus to compound-coated C127 cells. In these experiments, dilutions of compounds were added to cultures of C127 cells, incubated for 1 hr at 37° C., washed 3 times with media to remove unbound compound, prior to addition of approximately 100 focus-forming units of BPV-1. The cultures were incubated for an additional hour, washed three times to remove unbound virus, then the incubation was continued for two weeks with media changes every 3-4 days and foci counted as described above.
# Pre-incubation of C127-D10 cells with compounds prior to addition of BPV-1 was tested to determine whether the microbicidal effects of CS and DS extended to a blockage of virus interaction with cell surfaces. In these experiments, titrations of compounds were added to cell cultures followed by washing away unbound reagent prior to addition of virus. After a one-hour incubation with virus, unbound virus was removed by washing and the cultures monitored for foci after two weeks.
# [2] = test system: human papilloma virus-like particles (VLP's); conditions: Joyce et al. 1999; cited from earlier work
# HPV-40 = assay: RT-PCR ELISA for transient infection of human A431 cells, HPV-40; type: cell-based, human papilloma virus; conditions: with virus (HPV-40)
# Protocol: (§1) Cellulose sulfate and dextran sulfate were each prepared as a 2 mg/ml solution in 0.9% NaCl and tested for microbicidal activity using the in vitro HPV transient infection assay originally described by Smith and colleagues (Smith, L. H., C. Foster, M. E. Hitchcock, and R. Isseroff. 1993. In vitro HPV-11 infection of human foreskin. J. Invest. Dermatol. 101:292-295) with some modifications (Ludmerer, S. W., W. L. McClements, X. M. Wang, J. C. Ling, K. U. Jansen, and N. D. Christensen. 2000. HPV11 mutant virus-like parties elicit immune responses that neutralize virus and delineate a novel neutralizing domain. Virology 266:237-245). An ELISA-based read-out of Optical Density (OD) values using alkaline phosphatase cleavage of the substrate p-nitrophenyl phosphate was also used to measure HPV infection as described below.
# The RT-PCR assay to detect HPV-40 infection was designed similarly for the detection of HPV-11 infection as described above.
# (§2) A modification of the RT-PCR assay that incorporates an ELISA-based read-out (Boehringer-Mannheim) was also included to assess microbicidal activity. Replicate cell cultures of A431 cells were infected with an aliquot of infectious HPV virions as described above. After 4 days of culture, cells were harvested and RNA extracted. RNA was subjected to RT using downstream anti-sense (reverse) primers for HPV-11 or HPV-40 and β-actin (as a control/housekeeping cellular transcript) to initiate cDNA synthesis. The cDNA was processed through 2 sets of 30 cycles of PCR amplification using nested primers: the second set of cycles used digoxygenin (DIG)-dUTP to label the PCR products with DIG. DIG-labeled PCR products were denatured then renatured together with a biotinylated oligonucleotide specific for the targeted PCR product. Biotinylated products were detected in ELISA with plates coated with streptavidin (to capture the biotinylated target PCR product) then anti-DIG antibody and substrate. Labeled PCR products were added directly to ELISA plates, or titrated at 10-fold dilutions in duplicate for each cell culture for each virus dilution.
# The microbicidal activity was assessed either as the detection of ethidium stained PCR products or as an ELISA-based read-out as described above. […] An initial experiment was conducted to test the specificity of the ELISA-based RT-PCR assay using HPV-11 and HPV-40 infection of A431 cells (Table E).
# HPV-11 = assay: RT-PCR ELISA for transient infection of human A431 cells, HPV-11; type: cell-based, human papilloma virus; conditions: with virus (HPV-11)
# Protocol: as §1, §2
# BPV-1 [3] = assay: BPV-1 focus-forming assay, virus preincubated with compound (Table C); type: cell-based, bovine papilloma virus; conditions: C127 cell line
# Protocol: In a similar study using the BPV-1 focus forming assay, the effect of the cellulose sulfate and dextran sulfate on BPV was tested. In this study, cellulose sulfate tested was as described above. Dextran sulfate used was from Dextran Products Limited (Lot DSM-122) prepared using dextan of average Mr of about 500,000 (based on viscosity) and is estimated to have a final average Mr greater than about 500,000 and may be about 1 to 1.1 million.
# Microbicidal activity of the compounds was tested using the well-characterized BPV-1 focus-forming assay (Dvoretzky, I., R. Shober, S. K. Chattopadhyay, and D. R. Lowy. 1980. A quantitative in vitro focus assay for bovine papilloma virus. Virology 103:369-375), with modifications for microbicide testing (Hermonat, P. L., (1992) supra; Howett, M. K., et al. (1999) supra. The terms inhibiting or microbicidal activity when used are intended to refer broadly to microbe infection and/or microbe inactivating effect.
# Aliquots of BPV-1 containing approximately 100-200 focus-forming units were preincubated with dilutions of compounds for 10 min at 37° C. prior to addition to cultures of mouse C127 cells. Cultures of C127 cells were set up in T25 tissue culture flasks (Corning, N.Y.), containing 3×10^5 cells per flask. Virus-compound mixtures in a total of 50 μl were then added to flasks in 1 ml of media, and an additional 3 ml of media added after 24 hrs culture. Media was changed every 3-4 days for a period of 2 weeks. Foci were enumerated following staining of the monolayer with crystal violet and counting stained foci microscopically. Each concentration of compound was tested in duplicate, and the mean±SD of foci number for the preincubation virus-drug concentration for each compound is shown below as Table C.
# Clones were derived from the parental C127 cell line because of the consistent failure of BPV-1 to induce foci following several cell passages of the uncloned parental cell line. One clone, labeled C127-D10, which produced foci upon BPV-1 infection, was chosen for a repeat testing of the compounds. When this clone was tested for microbicidal activity, less compound was required to achieve high reduction in BPV-1-induced foci when compared to the uncloned parental-C127 cells.
# papillomaviruses = conditions: literature; cited from earlier work
# [4] = 100 μg/ml at viral pretreatment
Substance,Average ± standard deviation (foci/well) (BPV-1 [1]; 10 μg/ml),"reduction of BPV-1-induced foci (BPV-1 [1]; 10 μg/ml, cells pre-treated, washed)",Average ± standard deviation (foci/well) (BPV-1 [1]; 100 μg/ml),"Average ± standard deviation (foci/well) (BPV-1 [1]; 1,000 μg/ml)","Average ± standard deviation (foci/well) (BPV-1 [1]; 10,000 μg/ml)",binding of VLP's to HaCaT cells [2],"Mean (SD) of O.D. reading for RT-PCR ELISA, HPV-40 probe (HPV-40; 10 μg/ml at viral pretreatment)","Mean (SD) of O.D. reading for RT-PCR ELISA, HPV-40 probe (HPV-40; [4])","Mean (SD) of O.D. reading for RT-PCR ELISA, HPV-40 probe (HPV-40; 1000 μg/ml at viral pretreatment)","Mean (SD) of O.D. reading for RT-PCR ELISA, HPV-11 probe (HPV-11; 10 μg/ml at viral pretreatment)","Mean (SD) of O.D. reading for RT-PCR ELISA, HPV-11 probe (HPV-11; [4])",inhibition of papilloma virus infectivity (BPV-1 [3]; 100 μg/ml),inhibition of papilloma virus infectivity (BPV-1 [3]; 1 mg/ml),microbicidal activity against papillomaviruses (papillomaviruses)
Dextran sulfate,31 ± 16.9 foci/well,substantial reduction in foci,15 ± 4.6 foci/well,4 ± 2.6 foci/well,0 foci/well,inhibited,0.042 (0.007) O.D.,0.375 (0.073) O.D.,0.006 (0.007) O.D.,0.023 (0.000) O.D.,0.035 (0.000) O.D.,moderate inhibition,very high inhibition,
heparin [reference compound],,,,,,inhibited,,,,,,,,
nonoxynol-9,,,,,,,,,,,,,,ineffective
